Test results from PMC9621234, “Ligand-based discovery of coronavirus main protease inhibitors using MACAW molecular embeddings” (Journal of Enzyme Inhibition and Medicinal Chemistry, 2022).
Where two headings read alike, the source gives them in different places.

Tests used:
SARS-CoV-2 M^pro = biological target: T1, SARS-CoV-2 M^pro (Severe acute respiratory syndrome coronavirus 2, UniProt P0DTD1); assay: biochemical; conditions: for change of inhibition results upon addition of detergent: 0.1% Triton X-100, aggregation control; for inhibition curve, in words: 0.01-20 μM
T1 construct: in vitro FRET-based assay using recombinant M^pro; purchased Beyotime P0315M

[1] = tested on: Human coronavirus hCoV-229; format: cell-based
MRC-5 cells = assay: Cytotoxicity, MTT test; conditions: 72 h, 100 to 3.12 μg/mL
HCoV 229E = assay: Viral titres (TCID50) in MRC-5 cells; conditions: MRC-5, 72 h, different concentrations
[2] = Figure 2(l), Trial 1, read-out: IC50
[3] = Figure 2(l), Trial 2, read-out: IC50
[4] = Figure 2(l), With Triton-X100, read-out: IC50
[5] = Figure 2 panels a-k, dose-response curve, mean ± SEM, n = 3, read-out: IC50
[6] = Figure 4, With Triton-X100 (0.1%), unit inferred, read-out: IC50
[7] = Figure 4, Without Triton-X100, unit inferred, read-out: IC50
[8] = IC50, Figure 2 panels a-k, dose-response curve, mean ± SEM, n = 3

With c1ccc2sc(SSc3nc4ccccc4s3)nc2c1 [Compound 1] the “change of inhibition results upon addition of detergent” value (SARS-CoV-2 M^pro) was “did not change significantly”, the IC50 (SARS-CoV-2 M^pro; [2]) was 714 nM and the IC50 (SARS-CoV-2 M^pro; [3]) was 768 nM. The IC50 (SARS-CoV-2 M^pro; [4]) was 622 nM, the IC50 (SARS-CoV-2 M^pro; [5]) was 714 ± 182 nM and the IC50 (SARS-CoV-2 M^pro; [6]) was 625 ± 102 nM. The IC50 (SARS-CoV-2 M^pro; [7]) was 786 ± 151 nM, the IC50 (SARS-CoV-2 M^pro; read-out: IC50) was 710 nM and the “effect on cytopathogenic effect (CPE) of the virus” value (shortened to “effect on cytopathogenic effect”) [1] was “some reduction in CPE”. The “effect on cytopathogenic effect” value ([1]; high multiplicity of infection (high viral load), MRC-5, 72 h) was “no inhibitory effect” and the “cellular toxicity (cell viability)” value (MRC-5 cells) was “minimal toxicity”.

With Cc1ccc(-c2oc3ccccc3c(=O)c2O)cc1 [Compound 2] the “inhibition curve, in words” value (SARS-CoV-2 M^pro) was “atypical inhibition results”.

Compound Cc1ccc(-n2c(/C=C/c3ccc([N+](=O)[O-])cc3)nc3ccccc3c2=O)cc1 [Compound 3] has an IC50 (SARS-CoV-2 M^pro; [5]) of 38300 ± 18300 nM.

Nc1nnc(Sc2ccc([N+](=O)[O-])cn2)s1 [Compound 4] showed an IC50 (SARS-CoV-2 M^pro; [8]) of 6220 ± 1790 nM.

O=C1C2C3C=CC(C3)C2C(=O)C2C3C=CC(C3)C12 (centres unmarked) [Compound 5] gave an IC50 (SARS-CoV-2 M^pro; [8]) of 9790 ± 1450 nM.

c1ccc(Sc2ncnc3c2oc2ccccc23)cc1 [Compound 6] was tested, and the IC50 (SARS-CoV-2 M^pro; [8]) was 4980 ± 1280 nM.

O=c1sc2ccccc2n1Cc1ccccc1 [Compound 7, 3-benzyl-1,3-benzothiazol-2-one] was tested, and the “inhibition curve, in words” value (SARS-CoV-2 M^pro) was “atypical inhibition results”, the “change of inhibition results upon addition of detergent” value (SARS-CoV-2 M^pro) was “did not change significantly” and the IC50 (SARS-CoV-2 M^pro; IC50, Figure 2(l), Trial 1) was 174 nM. The IC50 (SARS-CoV-2 M^pro; IC50, Figure 2(l), Trial 2) was 179 nM, the IC50 (SARS-CoV-2 M^pro; IC50, Figure 2(l), With Triton-X100) was 241 nM and the “potency, in words” value (SARS-CoV-2 M^pro; at low concentrations, fluorescent signal increased at high compound concentrations) was “highly potent”. The “effect on cytopathogenic effect” value ([1]; across all the viral doses tested, MRC-5, 72 h) was “very significant reduction in CPE”, the “cellular toxicity (cell viability)” value (MRC-5 cells) was “minimal toxicity” and the “effect on viral titres (TCID50)” value (HCoV 229E) was “substantial reduction in the viral load”.

[O-][n+]1ccccc1SSc1cccc[n+]1[O-] [Compound 8, dipyrithione] was tested, and the “change of inhibition results upon addition of detergent” value (SARS-CoV-2 M^pro) was “did not change significantly”, the IC50 (SARS-CoV-2 M^pro; [2]) was 172 nM and the IC50 (SARS-CoV-2 M^pro; [3]) was 171 nM. For the same compound, the IC50 (SARS-CoV-2 M^pro; [4]) was 266 nM, the IC50 (SARS-CoV-2 M^pro; [5]) was 172 ± 25 nM and the IC50 (SARS-CoV-2 M^pro; [6]) was 285 ± 38 nM. The IC50 (SARS-CoV-2 M^pro; [7]) was 173 ± 23 nM, the IC50 (SARS-CoV-2 M^pro; read-out: IC50) was 180 nM and the “cellular toxicity (cell viability)” value (MRC-5 cells) was “limited toxicity”.

In the case of Nc1nnc(Sc2ncc([N+](=O)[O-])s2)s1 [Compound 9, halicin], the “change of inhibition results upon addition of detergent” value (SARS-CoV-2 M^pro) is reported as “did not change significantly”, the IC50 (SARS-CoV-2 M^pro; IC50) is reported as 420 nM and the IC50 (SARS-CoV-2 M^pro; IC50, Figure 2(l), Trial 1) is reported as 420 nM. It also gave an IC50 (SARS-CoV-2 M^pro; IC50, Figure 2(l), Trial 2) of 419 nM, an IC50 (SARS-CoV-2 M^pro; [8]) of 420 ± 49 nM and an IC50 (SARS-CoV-2 M^pro; IC50, Figure 4, With Triton-X100 (0.1%), unit inferred) of 461 ± 81 nM. The “cellular toxicity (cell viability)” value (MRC-5 cells) was “toxic”.
